We go through 4 compounds from US20210196676A1, “TREATMENT OF VIRAL INFECTIONS AND VIRALLY ASSOCIATED LESIONS WITH SEQUITERPENE LACTONES” (The Board of Regents of the University of Texas System, priority 2018, published 2021).

For one series, the system named is HPV. Conditions: after three months of treatment, confirmed by smears and biopsies; cited from earlier work.
The nature of series [1]: in vitro. To be noted: human.
A short description of series [2]: in vitro. Conditions: human. The source holds these as a separate data set.
In another series the test system is warts. To be noted: human, in vivo; cited from earlier work.
For a further series, the system named is ankle wart. Nature of the series: Topical treatment of a large ankle wart, case of a person. The format is in vivo, human.

In general, IC50 refers to the concentration that gives 50% inhibition.

Take `Cc1cccc(C)c1OCC(=O)N[C@@H](Cc1ccccc1)[C@@H](O)C[C@H](Cc1ccccc1)NC(=O)[C@H](C(C)C)N1CCCNC1=O` [Lopinavir]: the “women with high-grade disease having normal cervical conditions” value in the series on HPV was 82.6%. With `C=C1C(=O)O[C@@H]2C[C@@H](C)[C@@H]3C=CC(=O)[C@@]3(C)[C@@H](O)[C@H]12` (racemic) [H. tox, (±)-4-Hydroxy-4a,8-dimethyl-3,3a,4a,7a,8,9,9a-octahydroazuleno[6,5-b]furan-2,5-dione], the IC50 in “in vitro [1]” and in the series “in vitro [2]” was roughly 1 µM each time. `O=[N+]([O-])[O-].[Ag+]` [silver nitrate, Silver nitrate]: in the series with warts, the improvement in warts was 26%. On to `CC(=O)Oc1ccccc1C(=O)O` [crushed aspirin, aspirin], for which the “wart after treatment was stopped” value with ankle wart (treatment stopped) is “regrew”. Further, in the series with ankle wart (under a commercial band aid for several weeks), the wart size result is “slightly reduced in size”.
